Reference: patent US5521160A, “Sulfuric acid esters of sugar alcohols” (Hoffmann-La Roche Inc., priority 1994, dated 1996)
pIC50: −log10 of the molar value. Counter-ions that a name gives are not always drawn. Like-named read-outs stand apart in the source and are kept apart here.

Assays:
rat smooth muscle cells = experiment: Antiproliferative activity (growth inhibition of rat smooth muscle cells, relative to heparin); format: cell-based; conditions: 100 μg/ml, 48 hours, relative to heparin 100 μg/ml in same experiment
Experimental: The antiproliferative activity of a substance is expressed as the ri value which is a comparative value to the corresponding activity of heparin and which was determined in cell cultures as follows: rat smooth muscle cells were applied to cell culture plates in a density of 8×10^3 cells/well (medium: DMEM with 10% FCS. Cultivation at 37° C. and 5% CO2). After 4 hours the number of adhered cells was determined and the compounds to be tested (100 μg/ml, dissolved in H2 O) were added. The controls were a) cells to which test compound was not added and b) heparin (100 μg/ml). Subsequently, the cells were incubated for 48 hours and thereafter the cell count was determined once more.
The inhibition i of the cell growth, i.e. the percent reduction in the growth rate of the cells compared to the control, was calculated from these values: [formula] the growth rate μ being calculated as [formula] in which Z is the number of cells.
Finally, ri --the relative inhibitory activity--which expresses the activity of a substance (at 100 μg/ml) in comparison to the activity of heparin in the same concentration in the same experiment, was calculated: [formula]

thrombin = target: T1, thrombin (Homo sapiens, UniProt P00734); experiment: biochemical; format: biochemical
T1 construct: purchased Roche, Basle (Thrombin Reagent)
Experimental: (§1) The blood coagulation-inhibiting activity was determined as follows:
Inhibition of Thrombin or Factor Xa in the Chromogenic Substrate Assay (Teien. et al., Thrombosis Research 10, 399-410 (1977)): The determination was effected in a Cobas-Bio centrifugal automatic spectrophotometer. The buffer solution used consisted of 50 mM Tris buffer, 180 mM NaCl, 7.5 mM EDTA Na2, 1% PEG 6000 and 0.02% Tween 80, pH 8.4. The test solution consisted of 50 μl of buffer, 30 μl of antithrombin III (1 U/ml, Kabi Diagnostica) and 20 μl of plasma which contained various concentrations of test compounds. 30 μl of sample solution and 20 μl of water with 180 μl of thrombin (1 U/ml, Thrombin Reagent Roche Basle) were added to the test cuvette in the automatic analyzer. After incubation at 37° C. for 240 seconds, 60 μl of S-2238 (H-D-Phe-Pip-Arg-NH.pNA, Kabi Diagnostica, Mondal, Sweden, 0.75 mM in water) and 20 μl of water were added. The liberation of pNA (p-nitroaniline) was followed during 60 seconds at 405 nm in 10 second intervals in comparison to water as the blank.

Factor Xa = target: T2, Factor Xa (Bos taurus, UniProt P00743); experiment: Inhibition of Factor Xa in the chromogenic substrate assay (blood coagulation inhibition); format: biochemical
T2 sequence (P00743 41-180 limits assumed): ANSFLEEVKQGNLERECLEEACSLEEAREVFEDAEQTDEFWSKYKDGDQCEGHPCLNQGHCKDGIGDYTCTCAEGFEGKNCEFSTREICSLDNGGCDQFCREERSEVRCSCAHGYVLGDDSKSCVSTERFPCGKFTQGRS
Experimental: as §1
Inhibition of Thrombin or Factor Xa in the Chromogenic Substrate Assay (Teien. et al., Thrombosis Research 10, 399-410 (1977)): The determination was effected in a Cobas-Bio centrifugal automatic spectrophotometer. The buffer solution used consisted of 50 mM Tris buffer, 180 mM NaCl, 7.5 mM EDTA Na2, 1% PEG 6000 and 0.02% Tween 80, pH 8.4. The test solution consisted of 50 μl of buffer, 30 μl of antithrombin III (1 U/ml, Kabi Diagnostica) and 20 μl of plasma which contained various concentrations of test compounds.
The inhibition of Factor Xa was measured in the same manner using a solution of Factor Xa (2.8 nkat/ml) and 2 mM S-2222 (Bz-CO-Ile-Glu-Arg-NH.pNA, Kabi Diagnostica) in water in place of thrombin or S-2238.

[1] = read-out: Anticoagulative Activity IC50 Thrombin; chromogenic substrate S-2238, antithrombin III, plasma, pH 8.4, 37° C.
[2] = read-out: Anticoagulative Activity IC50 Factor Xa; chromogenic substrate S-2222, antithrombin III, plasma
[3] = chromogenic substrate S-2238, antithrombin III, plasma, pH 8.4, 37° C.; read-out: Anticoagulative Activity IC50 Thrombin
[4] = chromogenic substrate S-2222, antithrombin III, plasma; read-out: Anticoagulative Activity IC50 Factor Xa

pIC50 (thrombin; [3]) | pIC50 (Factor Xa; [4]) | Anticoagulative Activity IC50 Thrombin (thrombin; chromogenic substrate S-2238, antithrombin III, plasma, pH 8.4, 37° C.) | Anticoagulative Activity IC50 Factor Xa (Factor Xa; chromogenic substrate S-2222, antithrombin III, plasma) | Compound | Antiproliferative Activity ri (relative inhibitory activity compared with heparin) (rat smooth muscle cells) | pIC50 (thrombin; [1]) | pIC50 (Factor Xa; [2])
– | – | – | – | O=[N+]([O-])c1cc(S(=O)(=O)c2ccc(NC[C@H](OS(=O)(=O)O)[C@@H](OS(=O)(=O)O)[C@H](OS(=O)(=O)O)[C@@H](COS(=O)(=O)O)OS(=O)(=O)O)c([N+](=O)[O-])c2)ccc1NC[C@H](OS(=O)(=O)O)[C@@H](OS(=O)(=O)O)[C@H](OS(=O)(=O)O)[C@@H](COS(=O)(=O)O)OS(=O)(=O)O [Example 67, N,N'-bis-(2,3,4,5,6-penta-O-sulfo-D-glucit-1-yl)-2,2'-dinitro-4,4'-sulfonyldianiline decasodium salt] | 1.0 | < 3.17 | < 3.17
– | – | – | – | O=C(Nc1ccc(Cc2ccc(NC(=O)c3ccc(NC[C@H](OS(=O)(=O)O)[C@@H](OS(=O)(=O)O)[C@H](OS(=O)(=O)O)[C@@H](COS(=O)(=O)O)OS(=O)(=O)O)c([N+](=O)[O-])c3)cc2)cc1)c1ccc(NC[C@H](OS(=O)(=O)O)[C@@H](OS(=O)(=O)O)[C@H](OS(=O)(=O)O)[C@@H](COS(=O)(=O)O)OS(=O)(=O)O)c([N+](=O)[O-])c1 [Example 68, 4,4'-bis-(2,3,4,5,6-penta-O-sulfo-D-glucit-1-ylamino)-3,3'-dinitro-N,N'-(4,4'-methylene-diphenyl)-dibenzamide decasodium salt] | 1.1 | < 3.22 | < 3.22
< 3.16 | < 3.16 | – | – | O=C(NC[C@H](OS(=O)(=O)O)[C@@H](OS(=O)(=O)O)[C@H](OS(=O)(=O)O)[C@@H](COS(=O)(=O)O)OS(=O)(=O)O)c1ccc(/C=C/c2ccc(C(=O)NC[C@H](OS(=O)(=O)O)[C@@H](OS(=O)(=O)O)[C@H](OS(=O)(=O)O)[C@@H](COS(=O)(=O)O)OS(=O)(=O)O)cc2Cl)cc1 [Example 85, (E)-2-chlorostilbene-4,4'-dicarboxylic acid bis-(2,3,4,5,6-penta-O-sulfo-D-glucit-1-ylamide) decasodium salt] | 2.1 | – | –
< 3.08 | < 3.08 | – | – | C[C@H](OS(=O)(=O)O)[C@H](OS(=O)(=O)O)[C@@H](OS(=O)(=O)O)[C@H](CNC(=O)c1ccc(/C=C\c2ccc(C(=O)NC[C@H](OS(=O)(=O)O)[C@H](OS(=O)(=O)O)[C@@H](OS(=O)(=O)O)[C@H](C)OS(=O)(=O)O)cc2)cc1)OS(=O)(=O)O [Example 93, (Z)-stilbene-4,4'-dicarboxylic acid bis-(2,3,4,5,6-penta-O-sulfo-L-rhamnit-1-ylamide) octasodium salt] | 1.0 | – | –
– | – | 1.9 µg/mL | 2.7 µg/mL | heparin [reference compound] | 1.0 | – | –
